# Measured values reported in paper PMC3242765, “Inhibitors of Alphavirus Entry and Replication Identified with a Stable Chikungunya Replicon Cell Line and Virus-Based Assays” (PLoS ONE, 2011).
# Structures can show the parent of a compound that is named as a salt.
# How the values were obtained:
# CHIKV replicon = assay: microbe, parasite or virus in culture; type: cell-based, Chikungunya virus (CHIKV)
Compound,"SFV replication % left (surviving fraction, remaining percentage of SFV replication) (SFV-Rluc) [%]",CHIKV replicon % left (CHIKV replicon) [%]
Oc1ccc(C(O)CNCCCCCCNCC(O)c2ccc(O)c(O)c2)cc1O (stereo not drawn) [Hexoprenaline],124.9,79.1
O=C(O)[C@]1(O)C[C@@H](O)[C@@H](O)[C@H](O)C1 [(-)-Quinic acid],98.2,106.9
C[C@]12C=CC(=O)C=C1CC[C@@H]1[C@@H]2[C@@H](O)C[C@@]2(C)[C@H]1CC[C@]2(O)C(=O)CO [Prednisolone],104.2,84.3
NC(=O)NS(=O)(=O)c1ccc(N)cc1.O [Sulfaninyl urea hydrate],120.2,92.8
OCc1ccccc1O[C@@H]1O[C@H](CO)[C@@H](O)[C@H](O)[C@H]1O [D(-)-Salicin],104.4,99.4
CCCOC(=O)c1cc(O)c(O)c(O)c1 [n-Propyl gallate],33.6,39.4
CCCCNC(=O)NS(=O)(=O)c1ccc(C)cc1 [Tolbutamide],80.2,100.9
Oc1cc(O)c2c(c1)O[C@H](c1ccc(O)c(O)c1)[C@@H](O)C2 [(+)-Catechin],64.5,96.5
O=C(O)Cc1ccc(O)cc1 [4-Hydroxyphenylacetic acid],103.6,87.2
Saccharin sodium,105.0,81.5
CN1CCN(CCCN2c3ccccc3Sc3ccc(Cl)cc32)CC1 [Prochlorperazine],51.4,71.9
COc1cc2oc(=O)ccc2cc1O [Isoscopoletin],120.6,99.4
Cc1cc(N)c2ccccc2[n+]1CCCCCCCCCC[n+]1c(C)cc(N)c2ccccc21 [Dequalinium chloride],62.5,39.4
CN1CCCCC1CCN1c2ccccc2Sc2ccc([S+](C)[O-])cc21 (stereo not drawn) [Mesoridazine besylate],93.8,100.5
CC(N)C(O)c1ccc(O)c(O)c1 (stereo not drawn) [Nordefrin hydrochloride],118.0,104.2
CCOc1ccc(NC(N)=O)cc1 [Dulcin [p-phenetylurea]],103.3,70.2
(-)-Epicatechin gallate,94.8,100.5
Nc1ccc(S(N)(=O)=O)cc1 [Sulfanilamide],64.2,100.5
CCc1nnc(NS(=O)(=O)c2ccc(N)cc2)s1 [Sulfaethidole],106.4,100.4

Compound,"SFV replication % left (surviving fraction, remaining percentage of SFV replication) (SFV-Rluc) [%]",CHIKV replicon % left (CHIKV replicon) [%]
NCCCS(=O)(=O)O [Homotaurine],118.7,89.2
O=C(O)/C=C/c1ccc(O)c(O)c1 [Caffeic acid],98.7,85.2
CCCCC1(CC)C(=O)NC(=O)NC1=O [Butethal],45.2,78.2
CC(Cc1ccc(O)c(O)c1)C(C)Cc1ccc(O)c(O)c1 (stereo not drawn) [Nordihydroguaiaretic acid],35.6,28.3
N[C@@H]1C[C@H]1c1ccccc1.N[C@H]1C[C@@H]1c1ccccc1.O=S(=O)(O)O [Tranylcypromine sulfate],94.8,94.4
Cc1nnc(NS(=O)(=O)c2ccc(N)cc2)s1 [Sulfamethylthiadiazole],89.6,92.1
CNCCC=C1c2ccccc2CCc2ccccc21 [Nortriptyline hydrochloride],5.3,29.1
Oc1cc(O)c2cc(O)c(-c3ccc(O)c(O)c3)[o+]c2c1 [Cyanidin chloride],24.5,54.8
Cc1ncc([N+](=O)[O-])n1CCO [Metronidazole],69.2,89.2
NS(=O)(=O)c1cc2c(cc1Cl)N=CNS2(=O)=O [Chlorothiazide],90.3,82.1
CC(C)(C)NCC(O)c1ccc(O)c(CO)c1.CC(C)(C)NCC(O)c1ccc(O)c(CO)c1.O=S(=O)(O)O (racemic) [(+/-) Salbutamol sulfate],105.0,71.9
Oc1cc(O)c2c(c1)O[C@H](c1ccc(O)c(O)c1)[C@H](O)[C@H]2c1c(O)cc(O)c2c1O[C@H](c1ccc(O)c(O)c1)[C@H](O)C2 [Procyanidin B2],93.7,101.9
Cc1cc(C(C)(C)C)c(O)c(C(C)(C)C)c1 [Butylated hydroxytoluene],72.6,47.8
Oc1ccc(O)cc1 [Hydroquinone],16.9,72.9
O=c1oc2c3c4c(cc2c2c1CCC2)CCCN4CCC3 [Coumarin 106],82.1,91.5
Cc1c(N(C)CS(=O)(=O)[O-])c(=O)n(-c2ccccc2)n1C.[Na+] [Metamizol sodium],86.0,105.1
Oc1cccc(O)c1 [Resorcinol],67.1,102.9
C[C@H](N)[C@H](O)c1cccc(O)c1.O=C(O)C(O)C(O)C(=O)O [Metaraminol bitartrate salt],96.5,69.1
O=c1c(O)c(-c2ccc(O)c(O)c2)oc2c(O[C@@H]3O[C@H](CO)[C@@H](O)[C@H](O)[C@H]3O)c(O)cc(O)c12 [Gossypin],105.8,104.3

Compound,"SFV replication % left (surviving fraction, remaining percentage of SFV replication) (SFV-Rluc) [%]",CHIKV replicon % left (CHIKV replicon) [%]
NC(=O)c1ccccc1O [Salicylamide],126.2,38.2
CC(C)(CO)[C@@H](O)C(=O)NCCC(=O)[O-].CC(C)(CO)[C@@H](O)C(=O)NCCC(=O)[O-].O.[Ca+2],93.1,106.1
O=C(Oc1ccccc1C(=O)O)c1ccccc1O [Salicylsalicylic acid],127.4,88.9
CCCCNCC(O)c1ccc(O)cc1 (stereo not drawn) [Bamethan],67.1,96.9
CCN(CC)CCNC(=O)c1ccc(N)cc1 [Procainamide hydrochloride],89.0,100.4
CCN(CCO)CCCC(C)Nc1ccnc2cc(Cl)ccc12 (stereo not drawn) [Hydroxychloroquine sulfate],128.9,100.1
Cc1cc(C(C)(C)C)cc(C)c1CC1=NCCN1 [Xylometazoline],94.2,78.2
CC(C)(C)NCC(O)COc1ccc(NC(=O)NC2CCCCC2)cc1 (stereo not drawn) [Talinolol],76.9,91.8
Cc1ccccc1OCC(O)CO (stereo not drawn),79.2,54.1
Cc1cccc(C)c1NC(=O)C1CCCCN1C (stereo not drawn) [Mepivacaine hydrochloride],74.9,62.2
O=c1oc2cc(O)ccc2cc1-c1nc2ccccc2o1 [3-(2-Benzoxazolyl)umbelliferone],21.0,61.8
Cc1cc(C)nc(NS(=O)(=O)c2ccc(N)cc2)n1 [Sulfamethazine],91.7,100.5
COc1ccc2c(C)cc(=O)oc2c1 [7-Methoxy-4-methylcoumarin],72.2,100.6
Nc1nc(N)c2nc(-c3ccccc3)c(N)nc2n1 [Triamterene],93.0,71.2
O=C1CN(/N=C/c2ccc([N+](=O)[O-])o2)C(=O)N1 [Nitrofurantoin],58.9,60.9
C[N+]1(C)[C@@H]2CC[C@H]1C[C@@H](OC(=O)C(CO)c1ccccc1)C2 (stereo partly drawn) [Methylatropine bromide],70.9,54.9
CN(C)c1cccc2c(S(=O)(=O)Cl)cccc12,4.6,10.4
CCS(=O)(=O)C(C)(C)S(=O)(=O)CC [Sulfonmethane],86.6,102.7
Cc1ccc(O)c(O)c1 [4-Methyl pyrocatechol],111.1,98.8
